Source: ChEMBL document CHEMBL5244204, “Drug discovery approaches targeting 5-lipoxygenase-activating protein (FLAP) for inhibition of cellular leukotriene biosynthesis” (Eur J Med Chem, 2018)
Blank lines part the entries; values can stand above or below the compound they belong to.

Columns and labels:
[1] = Inhibition of Leukotriene biosynthesis in calcium ionophore A-23187 stimulated human PMNL cells assessed as inhibition of LTB4 formation by enzyme immunoassay; assay type: functional, cell-based
[2] = tested on: Rattus norvegicus; assay: In vivo inhibition of Leukotriene biosynthesis in pleural inflammation rat model assessed as reduction in LTB4 level at po dosed for 1 hr followed by calcium ionophore A-23187 administration and measured after 30 mins by enzyme immunoassay; assay type: functional; conditions: time 1.5 hrs
[3] = molecular target: T1, Prostaglandin E synthase (Homo sapiens, UniProt O14684); assay: Inhibition of mPGES-1 activity in IL-1beta human A549 microsome using PGH2 as substrate preincubated for 15 mins followed by substrate addition for 1 min by RP-HPLC analysis; assay type: microsomes
T1 sequence (O14684 whole entry): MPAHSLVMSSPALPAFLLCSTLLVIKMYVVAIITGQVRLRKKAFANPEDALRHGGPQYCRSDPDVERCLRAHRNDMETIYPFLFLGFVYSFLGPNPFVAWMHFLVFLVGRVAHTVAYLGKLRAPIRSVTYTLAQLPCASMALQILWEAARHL

[4] = molecular target: T2, Arachidonate 5-lipoxygenase-activating protein (Homo sapiens, UniProt P20292); assay: Inhibition of FLAP in human neutrophil assessed as reduction in all-trans isomers of LTB4 and 5-HETE formation using arachidonic acid as substrate preincubated with enzyme for 15 mins followed by substrate addition and A23187 measured after 10 mins by ELISA assay; assay type: cell-based
T2 sequence (P20292 whole entry): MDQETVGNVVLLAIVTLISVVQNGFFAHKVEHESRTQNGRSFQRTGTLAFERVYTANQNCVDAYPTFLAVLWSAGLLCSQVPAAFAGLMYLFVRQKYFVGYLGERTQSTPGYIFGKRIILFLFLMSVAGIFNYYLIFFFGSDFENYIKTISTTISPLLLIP

[5] = molecular target: T2, Arachidonate 5-lipoxygenase-activating protein; assay: Inhibition of FLAP in human whole blood assessed as reduction in all-trans isomers of LTB4 and 5-HETE formation preincubated with enzyme for 15 mins followed by fMLP addition and measured after 15 mins by HPLC analysis; assay type: tissue-based
[6] = molecular target: T2, Arachidonate 5-lipoxygenase-activating protein; assay: Inhibition of FLAP in human monocyte assessed as reduction in all-trans isomers of LTB4 and 5-HETE formation preincubated with enzyme for 15 mins followed by A23187 addition and measured after 10 mins by ELISA assay; assay type: cell-based
[7] = species on record: Homo sapiens; assay: Inhibition of Leukotriene biosynthesis in human whole blood assessed as inhibition of LTB4 formation; assay type: functional
[8] = tested on: Rattus norvegicus; assay: In vivo inhibition of Leukotriene biosynthesis in anaphylaxis rat model assessed as reduction in LTB4 level at po dosed; assay type: functional
[9] = Inhibition of Leukotriene biosynthesis in human PMNL cells preincubated for 2 mins followed by calcium ionophore A23187 addition and measured after 5 mins by radioimmunoassay; assay type: functional, cell-based
[10] = molecular target: T3, Polyunsaturated fatty acid 5-lipoxygenase (Rattus norvegicus, UniProt P12527); assay: Inhibition of 5-LOX in […] rat PMNL cells assessed as reduction in 5-LO product level incubated for 3 mins by scintillation counting method; assay type: cell-based
T3 sequence (P12527 whole entry): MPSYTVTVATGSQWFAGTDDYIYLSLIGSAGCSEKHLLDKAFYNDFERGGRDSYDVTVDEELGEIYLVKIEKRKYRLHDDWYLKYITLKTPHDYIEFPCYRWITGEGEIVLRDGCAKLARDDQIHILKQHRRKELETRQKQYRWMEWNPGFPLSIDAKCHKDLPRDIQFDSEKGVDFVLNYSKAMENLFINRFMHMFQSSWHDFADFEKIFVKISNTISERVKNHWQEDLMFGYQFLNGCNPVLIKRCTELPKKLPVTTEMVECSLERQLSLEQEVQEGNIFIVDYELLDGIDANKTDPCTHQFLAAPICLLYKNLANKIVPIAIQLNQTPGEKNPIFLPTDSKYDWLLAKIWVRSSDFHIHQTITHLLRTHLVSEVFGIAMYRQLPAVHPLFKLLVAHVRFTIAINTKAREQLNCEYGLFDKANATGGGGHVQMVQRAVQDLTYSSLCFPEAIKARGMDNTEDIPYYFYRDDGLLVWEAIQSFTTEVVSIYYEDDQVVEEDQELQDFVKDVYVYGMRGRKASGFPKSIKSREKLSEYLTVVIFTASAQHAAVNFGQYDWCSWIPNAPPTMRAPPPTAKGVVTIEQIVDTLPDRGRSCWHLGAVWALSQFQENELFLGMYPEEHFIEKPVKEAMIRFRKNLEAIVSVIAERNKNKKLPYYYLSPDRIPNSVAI

[11] = molecular target: T2, Arachidonate 5-lipoxygenase-activating protein; assay: Inhibition of FLAP in human whole blood assessed as reduction in LTB4 level preincubated for 15 mins followed by calcium ionophore A23187 addition and measured after 30 min; assay type: tissue-based
[12] = molecular target: T2, Arachidonate 5-lipoxygenase-activating protein; assay: Inhibition of FLAP in human whole blood assessed as reduction of LTB4 formation preincubated with enzyme for 15 mins followed by calcimycin addition and measured after 30 mins by HTRF assay; assay type: tissue-based
[13] = molecular target: T2, Arachidonate 5-lipoxygenase-activating protein; assay: Inhibition of FLAP in human monocyte assessed as reduction in all-trans isomers of LTB4 and 5-HETE formation preincubated with enzyme for 15 mins followed by Ca2+ ionophore-A23187 and measured after 10 mins by HPLC analysis; assay type: cell-based
[14] = molecular target: T2, Arachidonate 5-lipoxygenase-activating protein; assay: Inhibition of FLAP in human PMNL cells assessed as reduction in all-trans isomers of LTB4 and 5-HETE formation preincubated with enzyme for 15 mins followed by Ca2+ ionophore-A23187 and measured after 10 mins by HPLC analysis; assay type: cell-based
[15] = Inhibition of Leukotriene biosynthesis in calcium ionophore A23187 stimulated human PMNL cells assessed as inhibition of LTB4 formation by cellular assay; assay type: functional, cell-based
[16] = tested on: Rattus norvegicus; assay: Anti-inflammatory activity against anaphylaxis in peritoneal cavity of rat model assessed as reduction in LTB4 level at po dosed by ELISA; assay type: functional
[17] = molecular target: T2, Arachidonate 5-lipoxygenase-activating protein; assay: Displacement of [125I]-L-691831 from recombinant human FLAP expressed in Sf9 insect cells incubated for 2 hr by scintillation proximity assay
[18] = molecular target: T4, Polyunsaturated fatty acid 5-lipoxygenase (Homo sapiens, UniProt P09917); assay: Inhibition of 5-LOX in human PMNL cells assessed as inhibition of LTB4 formation preincubated for 5 mins followed by calcium ionophore A23187 addition and measured after 6 min by HPLC analysis; assay type: cell-based
T4 sequence (P09917 whole entry): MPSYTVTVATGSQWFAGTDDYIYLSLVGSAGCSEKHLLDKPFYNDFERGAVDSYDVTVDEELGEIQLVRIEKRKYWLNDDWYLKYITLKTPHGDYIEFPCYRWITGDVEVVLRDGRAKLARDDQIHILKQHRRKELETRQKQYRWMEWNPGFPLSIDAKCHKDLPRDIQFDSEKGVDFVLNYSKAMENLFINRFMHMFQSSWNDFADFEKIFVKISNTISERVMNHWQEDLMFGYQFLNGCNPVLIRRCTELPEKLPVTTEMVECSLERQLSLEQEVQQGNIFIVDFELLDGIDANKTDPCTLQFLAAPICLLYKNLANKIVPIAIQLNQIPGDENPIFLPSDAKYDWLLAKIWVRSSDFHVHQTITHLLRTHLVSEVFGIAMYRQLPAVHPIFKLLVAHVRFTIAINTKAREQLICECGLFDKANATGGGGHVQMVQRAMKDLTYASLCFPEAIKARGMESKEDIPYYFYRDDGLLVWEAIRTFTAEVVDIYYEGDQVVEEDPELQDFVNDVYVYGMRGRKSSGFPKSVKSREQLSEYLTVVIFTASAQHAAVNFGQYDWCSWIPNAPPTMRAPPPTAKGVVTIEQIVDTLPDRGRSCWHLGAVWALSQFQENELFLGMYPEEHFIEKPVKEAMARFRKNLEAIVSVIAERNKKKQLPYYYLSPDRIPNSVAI

[19] = molecular target: T4, Polyunsaturated fatty acid 5-lipoxygenase; assay: Inhibition of 5-LOX in human whole blood assessed as inhibition of LTB4 formation preincubated for 10 mins followed by calcium ionophore A23187 addition and measured after 30 min by RIA/RP--HPLC analysis; assay type: tissue-based
[20] = molecular target: T4, Polyunsaturated fatty acid 5-lipoxygenase; assay: Inhibition of recombinant human 5-LO expressed in Escherichia coli JM109 using arachidonic acid as substrate incubated for 10 mins by HPLC analysis
[21] = molecular target: T2, Arachidonate 5-lipoxygenase-activating protein; assay: Inhibition of FLAP in human PMNL cells assessed as inhibition of 5-LO product LT formation preincubated for 15 mins followed by calcium ionophore A23187 addition and measured after 10 min by HPLC analysis; assay type: cell-based

SMILES: Nc1cnc(-c2ccc(C3CCC3)c(Oc3ncccn3)c2F)cn1
IC50 [11]: 66 nM

SMILES: CNC(=O)c1ccc(F)cc1-c1nc2cc(-c3cnc(N)nc3)ccc2n1C(C)(C)C
IC50 [12]: 130 nM

SMILES: CNC(=O)c1ccc(C#N)cc1-c1nc2cc(-c3cnc(N)nc3)ccc2n1C(C)(C)C
IC50 [12]: 94 nM

SMILES: CC(C)(C)n1c(-c2ccccc2C(=O)Nc2ccccn2)nc2cc(-c3cnc(N)nc3)ccc21
IC50 [12]: 2700 nM

SMILES: Nc1cnc(-c2ccc(-c3ccccc3S(N)(=O)=O)cc2F)cn1
IC50 [11]: 390 nM

SMILES: Cc1ccn(-c2ccc(Cl)cc2-c2nc3cc(-c4cnc(N)nc4)ccc3n2C(C)(C)C)n1
IC50 [17]: 0.7 nM

SMILES: CC(C)(C)c1ccc(-c2cnc(N)cn2)c(F)c1
IC50 [11]: 600 nM

SMILES: CC1(C)Cc2c(-c3ccccc3)c(-c3ccc(Cl)cc3)c(CC(=O)O)n2C1 [LICOFELONE]
IC50 [20]: > 10000 nM | IC50 [21]: 1700 nM

Continued, in another order:

IC50 [1]: 23 nM
SMILES: CC(CCC(=O)O)(c1ccc(OCc2ccc3ccccc3n2)cc1)c1ccc(OCc2ccc3ccccc3n2)cc1
ED50 [2]: 1.5 mg/kg

IC50 [3]: 200 nM | IC50 [4]: 150 nM | IC50 [5]: 4800 nM | IC50 [6]: 40 nM
SMILES: CC(C)Cc1ccc(C(C)c2nc3ccccc3n2Cc2ccccc2Cl)cc1 (stereo not drawn)

IC50 [7]: 870 nM
SMILES: C/C(=N\O[C@H](c1ccc(OCc2ccc3ccccc3n2)cc1)C1CCCCC1)C(=O)[O-].[Na+]
ED50 [8]: 0.4 mg/kg

IC50 [9]: 30 nM
SMILES: c1ccc(COCC(OCc2ccccc2)c2ccc(OCc3ccc4ccccc4n3)cc2)cc1 (stereo not drawn)

IC50 [10]: 20 nM
SMILES: O=C(O)CSC(CCCc1ccc(Cl)cc1)c1ccc(OCc2ccc3ccccc3n2)cc1 (stereo not drawn)

IC50 [13]: 7 nM | IC50 [14]: 7 nM
SMILES: O=C(O)c1noc(-c2ccc(OCc3ccc4ccccc4n3)cc2)c1-c1ccc(Cl)cc1

IC50 [15]: 12 nM
SMILES: CC(C)(/C=N/OCC(=O)O)Cc1c(SC(C)(C)C)c2cc(OCc3ccc4ccccc4n3)ccc2n1Cc1ccc(Cl)cc1
ED50 [16]: 0.24 mg/kg

IC50 [9]: 4 nM
SMILES: O=C(O)CSC(CCCc1ccccc1)(Cc1ccccc1)c1ccc(OCc2ccc3ccccc3n2)cc1 (stereo not drawn)

IC50 [18]: 42 nM | IC50 [19]: 1100 nM
SMILES: O=C(O)[C@@H](c1ccc(OCc2ccc3ccccc3n2)cc1)C1CCCCCC1

IC50 [15]: 21 nM
SMILES: CC(C)(CO/N=C/C(=O)O)Cc1c(SC(C)(C)C)c2cc(OCc3ccc4ccccc4n3)ccc2n1Cc1ccc(Cl)cc1
ED50 [16]: 0.9 mg/kg

IC50 [10]: 70 nM
SMILES: O=C(O)CSC(CCCc1ccccc1)c1ccc(OCc2ccc3ccccc3n2)cc1 (stereo not drawn) [AZD-4769]

IC50 [7]: 6000 nM | IC50 [18]: 220 nM | IC50 [19]: 11600 nM
SMILES: O=C(O)[C@@H](c1ccc(OCc2ccc3ccccc3n2)cc1)C1CCCC1 [VELIFLAPON]
ED50 [8]: 4 mg/kg
